Assay results taken from patent publication US20230181602A1, “TREATMENT OF NON-ALCOHOLIC STEATOHEPATITIS (NASH)” (DURECT CORPORATION, priority 2020, published 2023).
Marks after values point to notes of the source that are not given here.

Tests used:
[1] = Single dose safety and pharmacokinetic study in subjects with NASH and control healthy subjects; type: in vivo, human
Description: The present Example was a randomized, dose ranging, single dose safety and pharmacokinetic study of 25HC3S administered to subjects with NASH and control healthy subjects. […] For each cohort, 10 subjects with NASH were enrolled which were further classified into cirrhotic and non-cirrhotic. Each subject received only one dose of study treatment. The second cohort was dosed after a review of safety and tolerability data from Cohort 1.

[2] = Phase 1b study in NASH patients: pharmacokinetics; type: in vivo, human; details: for CL/F: NASH patients, mean
Description: (§1) A total of 63 patients completed the study with 21 patients per dose group (completion of MRI-PDFF measurement). 25HC3 S sodium was orally administered daily at 50 mg, 150 mg, or 600 mg (300 mg BID). […] Subjects provided written informed consent to participate in the study • 2. Males or females subjects 18 years or older, at the time of signing informed consent • 3. BMI 20-45 kg/m^2 • 4. […] Value of Fibroscan® ≥7 kPa • OR • b. MRE ≥2.75 kPa • *Clinical diagnosis of NASH was defined in this clinical trial as the existence of one or more of the following risk factors for NASH, namely: • a. Type 2 diabetes or elevated fasting blood sugar • b. Abdominal obesity • c. Elevated lipid levels, especially elevated levels of serum triglycerides • d. Hypertension, or • e. Low levels of HDL cholesterol • 5. For serum transaminases, ALT concentration for all patients at the time of screening was >1 and <5 times upper limit of normal (ULN) of the central lab in the absence of another cause of liver disease. If a patient had lab records in the past 6 months, ALT concentrations were <20 U/L female and <30 U/L male. AST concentration for all patients at the time of screening was <5× ULN • 6. […] Platelet counts ≥120,000/mm^3 • 8. Female subjects were eligible for the study if they met the following criteria: • Are not pregnant or nursing • Women of child-bearing potential (defined as females who are not surgically sterile or who are not over the age of 52 and amenorrheic for at least 12 months) must utilize appropriate birth control throughout the study duration. Acceptable methods that may be used are abstinence, birth control pills (“The Pill”) or patch, diaphragm, IUD (coil), vaginal ring, condom, surgical sterilization or progestin implant or injection, or sexual activity limited to a sterile (e.g., vasectomized) male partner • 9. Male participants agreed to consistently and correctly use a condom in combination with one of the above methods of birth control from enrollment to 30 days after the last dose of study medication • 10. Participants were able to comply with dosing and able to complete the study schedule of assessments
The pharmacokinetics of administered 25HC3 S was determined.

[3] = test system: NASH patients with stage 1-3 fibrosis; test: Phase 1b study in NASH patients, 4-week daily oral dosing: pharmacodynamic signals; type: in vivo, human; details: for Mean Non-HDL to Baseline / Mean TG to Baseline / Median Non-HDL to Baseline / Median TG to Baseline: day 28 after dosing
Description: as §1

[4] = test system: NASH patients with stage 1-3 fibrosis; test: Phase 1b study in NASH patients: safety; type: in vivo, human; details: 4 weeks oral
Description: A total of 63 patients completed the study with 21 patients per dose group (completion of MRI-PDFF measurement). 25HC3 S sodium was orally administered daily at 50 mg, 150 mg, or 600 mg (300 mg BID). […] Subjects provided written informed consent to participate in the study • 2. Males or females subjects 18 years or older, at the time of signing informed consent • 3. BMI 20-45 kg/m^2 • 4. […] Value of Fibroscan® ≥7 kPa • OR • b. MRE ≥2.75 kPa • *Clinical diagnosis of NASH was defined in this clinical trial as the existence of one or more of the following risk factors for NASH, namely: • a. Type 2 diabetes or elevated fasting blood sugar • b. Abdominal obesity • c. Elevated lipid levels, especially elevated levels of serum triglycerides • d. Hypertension, or • e. Low levels of HDL cholesterol • 5. For serum transaminases, ALT concentration for all patients at the time of screening was >1 and <5 times upper limit of normal (ULN) of the central lab in the absence of another cause of liver disease. If a patient had lab records in the past 6 months, ALT concentrations were <20 U/L female and <30 U/L male. AST concentration for all patients at the time of screening was <5× ULN • 6. […] Platelet counts ≥120,000/mm^3 • 8. […]

NASH patients = details: between 50 mg and 200 mg oral dose levels; cited from earlier work
[5] = Metabolite profiling of plasma, urine and feces after intravenous dose in rats; type: in vivo, Sprague Dawley rats; details: intravenous 10 mg/kg, up to 1 hour postdose
Description: Nine male Sprague Dawley rats (Group 1) were designated for the pharmacokinetic phase, 3 male Sprague Dawley rats (Group 2) for the excretion mass balance phase, and 7 male Sprague Dawley rats (Group 3) and 9 male Long Evans rats (Group 4) for the tissue distribution phase. All animals received a single intravenous dose of [^14C]-25HC3S at 10 mg/kg and a target radioactivity of 225 μCi/kg. Blood samples were collected from all Group 1 animals at approximately 0.083, 0.25, 0.5, 1, 2, 4, 8, 12, 24, 48, and 72 hours post-dose. Urine and feces were collected from all Group 2 animals periodically through 168 hours post-dose. […] Following blood collection, animals were euthanized by CO2 inhalation and carcasses frozen in a dry ice/hexane bath for processing by quantitative whole body autoradiography. Whole blood, plasma, urine, feces, cage rinse, and cage wash were analyzed for total radioactivity by liquid scintillation counting.
Plasma pools were made from Group 1 rats at the 0.083, 0.25, 0.5, and 1-hour collection time points.
Urine pools were prepared for Group 2 at 0 to 6 and 6 to 12 hours postdose. The largest component present was attributed to the parent 25HC3 S representing about 78% to 93% of the radioactivity. […]

[6] = 50 mg QD, 4 weeks oral, patients with ≥10% reduction in MRI-PDFF, Day 28 vs baseline
[7] = 50 mg QD, 4 weeks oral, patients with ≥10% reduction in MRI-PDFF, Day 28 vs baseline, listed as 25HC3 S
[8] = 300 mg BID, 4 weeks oral, patients with ≥10% reduction in MRI-PDFF, Day 28 vs baseline
[9] = 300 mg BID, 4 weeks oral, patients with ≥10% reduction in MRI-PDFF, Day 28 vs baseline, listed as 25HC3 S
[10] = all on a statin except one outlier (n = 19)
[11] = all patients on a statin (n = 20)

Compound: C[C@H](CCCC(C)(C)O)[C@H]1CC[C@H]2[C@@H]3CC=C4C[C@@H](OS(=O)(=O)O)CC[C@]4(C)[C@H]3CC[C@]12C [25HC3S, 5-cholesten-3,25-diol, 3-sulfate]
- difference between healthy and NASH subjects in pharmacokinetics (Cmax and AUC) ([1]; 50 mg and 200 mg): no clear difference
- increase of AUC0-last, AUCinf and Cmax with increasing dose ([1]; 50 mg to 200 mg): less than proportional
- geometric mean AUC0-12 and AUC0-last, NASH versus healthy subjects ([1]; Cohort 1 (50 mg)): similar
- AUC0-inf, higher in NASH subjects than healthy ([1]; Cohort 2 (200 mg)): approximately 20%
- increase of geometric mean Cmax in NASH subjects over healthy subjects ([1]; Cohorts 1 and 2): 18-24%
- increase in both Cmax and AUC parameters for a four-fold increase in dose ([1]; NASH subjects, 50 mg to 200 mg): three-fold
- increase in mean Cmax for a four-fold increase in dose ([1]; healthy subjects, 50 mg to 200 mg): three-fold
- Mean % AUCexp ([1]; human, in vivo): low
- CL/F ([2]; 50 mg QD oral): 150.6 L/h
- dose dependence of PK parameters ([2]; 50 mg, 150 mg, 600 mg daily): dose dependent
- CL/F ([2]; 150 mg QD oral): 176.6 L/h
- CL/F ([2]; 300 mg BID oral): 166.2 L/h
- PK parameters after repeat dosing versus single dose ([2]; 4-week daily oral dosing): comparable to those after a single dose
- Non-HDL-C, median change ([3]; 50 mg QD, 4 weeks oral, all patients, Day 28 vs baseline): −8%
- APRI score, median change [3, 6]: −27%***
- AST, median change [3, 6]: −24%**
- FIB-4 score, median change [3, 6]: −19%**
- GGT, median change [3, 6]: −13%***
- APRI score, median change [3, 7]: −27%
- AST, median change [3, 7]: −24%
- FIB-4 score, median change [3, 7]: −19%
- GGT, median change [3, 7]: −13%
- GGT, median change ([3]; 150 mg QD, 4 weeks oral, all patients, Day 28 vs baseline): −1%
- APRI score, median change [3, 8]: −36%***
- AST, median change [3, 8]: −39%***
- FIB-4 score, median change [3, 8]: −21%***
- APRI score, median change [3, 9]: −36%
- AST, median change [3, 9]: −39%
- FIB-4 score, median change [3, 9]: −21%
- Mean Non-HDL to Baseline [3, 10]: −11%
- Mean TG to Baseline [3, 10]: −10%
- Median Non-HDL to Baseline [3, 10]: −10%
- Median TG to Baseline [3, 10]: −9%
- Mean Non-HDL to Baseline [3, 11]: −9%
- Mean TG to Baseline [3, 11]: −2%
- Median Non-HDL to Baseline [3, 11]: −9%
- Median TG to Baseline [3, 11]: −6%
- enzyme levels (e.g., ALT, AST, GGT) ([3]; high dose (300 mg BID)): improved enzyme levels
- patients who showed ≥10% liver fat reduction from baseline as measured by MRI-PDFF ([3]; in each dose group (50 mg, 150 mg, 600 mg daily), after 4-week dosing): 43%
- serum triglycerides, median reduction from baseline ([3]; patients with elevated baseline triglycerides (≥200 mg/dL; n=16) across all dose groups, day 28): −24%
- reduction in serum triglycerides ([3]; patients with elevated baseline triglycerides (≥200 mg/dL; n=16) across all dose groups, day 28 from baseline): 24%
- tolerability ([4]; all three doses (50 mg, 150 mg, 600 mg daily)): well tolerated
- drug related serious adverse events ([4]; all three doses): no drug related serious adverse events observed
- dose-dependent changes of biological responses (NASH patients): no dose-dependent changes of biological responses
- share of the exposure (AUC) to related radioactivity in plasma [5]: approximately 54%
